Source: PubChem BioAssay (NCI)
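Tested at 5 concentrations; 48 h exposure; 96-well plates; endpoints linearly interpolated, else capped at highest concentration. GI50 marks 50% less growth. TGI: total growth inhibition.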

What was measured:
Test in all cases: inhibition of tumour cell growth, NCI panel, 48 h
UO-31 renal = test system: UO-31 renal
MALME-3M melanoma = test system: MALME-3M melanoma
NCI-H522 lung = test system: NCI-H522 lung
HCC-2998 colon = test system: HCC-2998 colon
NCI-H23 lung = test system: NCI-H23 lung
HL-60(TB) leukemia = test system: HL-60(TB) leukemia
SF-295 CNS = test system: SF-295 CNS
HOP-62 NSCLC = test system: HOP-62 NSCLC
SN12C renal = test system: SN12C renal
SK-OV-3 ovarian = test system: SK-OV-3 ovarian

Row | Structure (SMILES) | GI50 (UO-31 renal) | TGI (UO-31 renal) | GI50 (MALME-3M melanoma) | TGI (MALME-3M melanoma) | GI50 (NCI-H522 lung) | TGI (NCI-H522 lung) | GI50 (HCC-2998 colon) | TGI (HCC-2998 colon) | GI50 (NCI-H23 lung) | TGI (NCI-H23 lung) | GI50 (HL-60(TB) leukemia) | TGI (HL-60(TB) leukemia) | GI50 (SF-295 CNS) | TGI (SF-295 CNS) | GI50 (HOP-62 NSCLC) | TGI (HOP-62 NSCLC) | GI50 (SN12C renal) | TGI (SN12C renal) | GI50 (SK-OV-3 ovarian) | TGI (SK-OV-3 ovarian)
1 | COC1=CC(c2ccc[nH]2)=N/C1=C\c1[nH]c(C)c(C(=O)CCCCC(=O)Nc2ccccc2)c1C | 1.43 µM | 3.12 µM | 1.28 µM | 3.16 µM | 1.32 µM | 3.46 µM | 3.78 µM | 16.7 µM | 1.87 µM | 4.8 µM | 1.84 µM | 5.37 µM | 6.11 µM | 29.2 µM | 2.98 µM | 9.7 µM | 1.67 µM | 4.38 µM | 18.3 µM | 40.1 µM
2 | CCCN(CCC)c1ccc(/C=N/NC(=O)c2cccnc2)c(Cl)c1 | 14.3 µM | 38.2 µM | 15 µM | 36.1 µM | 6.64 µM | 23.3 µM | 7.74 µM | 25.7 µM | 14.1 µM | 45.4 µM | 4.91 µM | 32.4 µM | 3.39 µM | 16.7 µM | 10.3 µM | 28.6 µM | 14.1 µM | 34.3 µM | 13.9 µM | 45.5 µM
3 | O=C1CCC2(CC1)SCCCS2 |  | > 100 µM |  | > 100 µM |  | > 100 µM |  | > 100 µM |  | > 100 µM |  | > 100 µM |  | > 100 µM |  | > 100 µM |  | > 100 µM |  | > 100 µM
4 | Cc1cc(Cl)cc2c1NC(=O)C2(O)C(C)C(=O)c1ccc(Cl)cc1 (centres undefined) |  | > 100 µM |  | > 100 µM |  | > 100 µM |  | > 100 µM |  | > 100 µM |  | 43.5 µM |  | > 100 µM |  | > 100 µM |  | > 100 µM |  | > 100 µM
5 | COc1ccc(/C=C2\CCC(C)(CN(C)C)C2=O)cc1 (centres undefined) |  | > 100 µM |  | > 100 µM |  | 32.8 µM |  | > 100 µM |  | > 100 µM |  | > 100 µM |  | > 100 µM |  | > 100 µM |  | > 100 µM |  | 
6 | COC(=O)C1=C(C(=O)OC)C23C=C(C)C1C2=C(C)C1(CC1)[C@@](C)(O)C3=O (some centres undefined) | 0.185 µM | 0.464 µM | 0.449 µM | 2.16 µM | 0.495 µM | 5.75 µM | 0.245 µM | 0.693 µM | 0.17 µM | 0.851 µM | 1.55 µM | 15.9 µM | 0.282 µM |  | 0.267 µM | 0.754 µM | 0.435 µM | 13.3 µM | 0.25 µM | 0.7 µM
7 | Nc1c(-c2ccc(Cl)cc2Cl)[n+]([O-])c2ccccc2[n+]1[O-] |  | > 100 µM |  | > 100 µM |  | > 100 µM |  | > 100 µM |  | > 100 µM |  | > 100 µM |  | > 100 µM |  | > 100 µM |  | > 100 µM |  | > 100 µM
8 | Cc1nc(NC(=O)CCCN2C(=O)c3cccc4cccc(c34)C2=O)sc1C(=O)Nc1cc(C(=O)NCCCN(C)C)n(C)c1 | > 100 µM | > 100 µM | > 100 µM | > 100 µM | > 100 µM | > 100 µM | > 100 µM | > 100 µM | > 100 µM | > 100 µM | > 100 µM | > 100 µM | > 100 µM | > 100 µM | > 100 µM | > 100 µM | > 100 µM | > 100 µM | > 100 µM | > 100 µM
9 | COc1ccc([N+](=O)[O-])c(S(=O)(=O)c2ccc(Cl)cc2)n1 | 2.97 µM | 10.2 µM | 2 µM | 4.08 µM | 1.86 µM | 3.77 µM | 8.38 µM | 23.8 µM | 4.58 µM | 29.2 µM | 6.8 µM | 41 µM | 13.1 µM | 28 µM | 16.6 µM | 30.5 µM | 3.82 µM | 16.8 µM | 15.1 µM | 31.9 µM
10 | COc1ccc(-c2nc(-c3nc4ccc(OC)cc4[nH]3)cc3c2[nH]c2ccccc23)cc1 | 1.66 µM | > 100 µM | 27.5 µM | > 100 µM | 2.7 µM | > 100 µM | 6.57 µM | > 100 µM | 5.8 µM | > 100 µM | 4.08 µM | > 100 µM |  |  | 4.24 µM | > 100 µM | 3.49 µM | > 100 µM | > 100 µM | > 100 µM
11 | Cc1ccc(C)c(-c2csc(Nc3ccc(C)c(C)c3)n2)c1 | > 100 µM | > 100 µM | > 100 µM | > 100 µM | 67.1 µM | > 100 µM | > 100 µM | > 100 µM | 65.7 µM | > 100 µM | > 100 µM | > 100 µM | 57.9 µM | > 100 µM | 36.8 µM | > 100 µM | > 100 µM | > 100 µM | > 100 µM | > 100 µM
12 | COC(=O)C1=C(CO)C2C=CC1C2 (centres undefined) |  | > 100 µM |  | > 100 µM |  | > 100 µM |  | > 100 µM |  | > 100 µM |  | > 100 µM |  | > 100 µM |  | > 100 µM |  | > 100 µM |  | > 100 µM
13 | C[C@@]12CCC(=O)C=C1CC[C@H]1C2=CC[C@]2(C)C1CC[C@@]2(C)O (some centres undefined) |  | > 100 µM |  | > 100 µM |  | > 100 µM |  | > 100 µM |  | > 100 µM |  | 77.9 µM |  | > 100 µM |  | > 100 µM |  | > 100 µM |  | > 100 µM
14 | N#Cc1ccnc(N2C(=O)CC[C@H]2C(=O)N(c2cncc(F)c2)[C@H](C(=O)NC2CC(F)(F)C2)c2ccccc2Cl)c1 | 18.3 µM | > 100 µM | > 100 µM | > 100 µM | > 100 µM | > 100 µM | > 100 µM | > 100 µM | > 100 µM | > 100 µM | > 100 µM | > 100 µM | > 100 µM | > 100 µM | > 100 µM | > 100 µM | 60.8 µM | > 100 µM | > 100 µM | > 100 µM
15 | CS(=O)(=O)Nc1ccc(Nc2c3ccccc3nc3ccccc23)cc1 |  | 12.5 µM |  | 12.2 µM |  | 13.7 µM |  | 27 µM |  | 25.8 µM |  | 9.19 µM |  | 14.6 µM |  | 13 µM |  | 17.1 µM |  | 16.1 µM
16 | CC1=C(C(=O)Nc2ccc(Cl)c(Cl)c2)C(c2ccco2)C(C(=O)Nc2ccc(Cl)c(Cl)c2)=C(C)N1 |  | 21.7 µM |  | 29.5 µM |  | 26.7 µM |  | 23.9 µM |  | 35.2 µM |  | 42.4 µM |  | 20.5 µM |  | 27.6 µM |  | 23.9 µM |  | 28.5 µM
17 | CC(C)(C)C(=O)C1CC(=O)c2ccccc2C1=O (centres undefined) |  | 67.8 µM |  | 31.4 µM |  | 65.8 µM |  | > 100 µM |  | 45.3 µM |  | 43.6 µM |  | > 100 µM |  | 62.9 µM |  | > 100 µM |  | 75 µM
18 | CC(=O)N=c1ccc2nc3c(cc(N)c4ccccc43)oc-2c1 | 1.03 µM | 2.46 µM | 1.39 µM | 2.84 µM | 1.44 µM | 3.47 µM | 0.503 µM | 1.87 µM | 1.27 µM | 4.25 µM | 0.279 µM | 6.8 µM |  |  | 0.573 µM | 1.83 µM | 1.39 µM | 2.9 µM | 1.92 µM | 4.95 µM
19 | O=C(NO)C12C3C4C1C1C2C3C41C(=O)NO (centres undefined) |  | > 100 µM |  | > 100 µM |  | > 100 µM |  | > 100 µM |  |  |  | > 100 µM |  | > 100 µM |  | > 100 µM |  | > 100 µM |  | > 100 µM
20 | O=C1C(=O)C(Br)(Br)C(Br)=C1Br |  | 33.5 µM |  | 35.4 µM |  | 6.68 µM |  | 62 µM |  |  |  | 38.2 µM |  | > 100 µM |  | > 100 µM |  | 51.8 µM |  | > 100 µM
21 | Nc1ccn(C2CC(CO)C(O)C2O)c(=O)n1 (centres undefined) |  | > 57.7 µM |  | > 57.7 µM |  | > 57.7 µM |  | > 57.7 µM |  |  |  | > 57.7 µM |  |  |  | > 57.7 µM |  | > 57.7 µM |  | > 57.7 µM
22 | COc1ccc(C(c2c(O)c3ccccc3n(C)c2=O)c2c(O)c3ccccc3n(C)c2=O)cc1 |  | > 100 µM |  | > 100 µM |  | 60 µM |  | > 100 µM |  | 66.7 µM |  | 90.7 µM |  | > 100 µM |  |  |  | > 100 µM |  | > 100 µM
23 | O=C(/C=C\c1ccc(Cl)cc1Cl)c1cccs1 |  | 25 µM |  | 42.9 µM |  | 50.3 µM |  |  |  | 44 µM |  | > 100 µM |  | 37.9 µM |  | 56.2 µM |  | 32.1 µM |  | 59.3 µM
24 | COc1ccc(-c2ccc(C3CC(c4ccc(Cl)cc4)=NN3)o2)c([N+](=O)[O-])c1 (centres undefined) | > 100 µM | > 100 µM | > 100 µM | > 100 µM | > 100 µM | > 100 µM | > 100 µM | > 100 µM | > 100 µM | > 100 µM | > 100 µM | > 100 µM | 43.5 µM | > 100 µM | > 100 µM | > 100 µM |  |  | > 100 µM | > 100 µM
25 | Cc1[nH]c(=O)[nH]c(=O)c1CO | > 100 µM | > 100 µM | > 100 µM | > 100 µM | > 100 µM | > 100 µM | > 100 µM | > 100 µM | > 100 µM | > 100 µM | > 100 µM | > 100 µM |  |  | > 100 µM | > 100 µM | > 100 µM | > 100 µM | > 100 µM | > 100 µM
